Measured values as given in patent US8067454B2, “Thio-substituted Anthra [1, 2-d] imidazole- 6, 11-dione derivatives, preparation method and application thereof” (National Defense Medical Center, priority 2010, dated 2011).

What was measured:
[1] = tested on: telomerase (total cell lysates of lung cancer cell line H1299); test: Telomeric Repeat Amplification Protocol (TRAP) assay, screen of telomerase inhibitors; assay type: biochemical, human; settings: 10 μM
Method: Telomeric Repeat Amplification Protocol (TRAP) Assay:
Telomerase activity was detected by a modified version of the general TRAP protocol. Telomerase products were resolved by 10% polyacrylamide gel electrophoresis and visualized by staining with SYBER Green. As a source of telomerase, the total cell lysates derived from lung cancer cell line H1299 cells were used. Protein concentration of the lysates was assayed using Bio-Rad protein assay kit using BSA standards.
In the TRAP assay, if a compound can stabilize the G-quadruplex structure such that telomerase can not act on telomere, then the effect of inhibiting the telomerase can be achieved. In the FIG. 2A to FIG. 2C, DMSO treatment represents as the positive control group (P); while a negative control group (N) used 5 μl of 0.1 mg/ml RNase A (CLONTECH) in the assay. It could be observed that a number of telomeric fragments were detected in the positive control group (P), while none was detected in the negative control group (N). 10 μM was selected as the concentration used to screen compounds.

GBM8401 = test: MTT assay, GBM8401 tumor cell; settings: concentration 10 μM, tumor cell
[2] = tested on: SVG p12, GBM8401 and GBM8901; test: MTT assay, normal cell versus tumor cells (categories 39-3 to 39-7); settings: tumor cell survival rate less than 80%; for category 39-4: survival rate higher than 80% for normal cell SVG p12 and only inhibits growth of tumor cell GBM8401: FIG. 5B
SVG p12 = test: MTT assay, SVG p12 normal cell; settings: for Cell survival rate (%) SVG p12: concentration 10 μM, normal cell
GBM8901 = test: MTT assay, GBM8901 tumor cell; settings: concentration 10 μM, tumor cell

| Structure (SMILES) | inhibition effect against telomerase [1] | Cell survival rate (%) GBM8401 (GBM8401) | category 39-5: survival rate higher than 80% for normal cell SVG p12 and only inhibits growth of tumor cell GBM8901 ([2]; FIG. 5C) | Cell survival rate (%) SVG p12 (SVG p12) | Cell survival rate (%) GBM8901 (GBM8901) | without cell toxicity for normal cell SVGP p12 (SVG p12; survival rate higher than 80%) | category 39-3: survival rate higher than 80% for normal cell SVG p12 and inhibits growth of both tumor cells GBM8401 and GBM8901 ([2]; FIG. 5A) | category 39-4: survival rate higher than 80% for normal cell SVG p12 and only inhibits growth of tumor cell GBM8401 [2] |
| --- | --- | --- | --- | --- | --- | --- | --- | --- |
| O=C1c2ccccc2C(=O)c2c1ccc1nc(SCCCCCBr)[nH]c21 [f1-9, 2-(5-bromopentylthio)-1H-anthra[1,2-d]imidazole-6,11-dione] | exhibited inhibition effect against telomerase | 62 ± 19% | in this category | – | – | – | – | – |
| O=C1c2ccccc2C(=O)c2c1ccc1nc(SCCN3CCCCC3)[nH]c21 [f1-12, 2-(2-(Piperidin-1-yl)ethylthio)-1H-anthra[1,2-d]imidazole-6,11-dione] | exhibited inhibition effect against telomerase | 6 ± 13% | – | 22 ± 8% | 42 ± 8% | – | – | – |
| CCN(CC)C(=O)CSc1nc2ccc3c(c2[nH]1)C(=O)c1ccccc1C3=O [f1-18, 2-(6,11-dioxo-6,11-dihydro-1H-anthra[1,2-d]imidazol-2-ylthio)-N,N-diethylacetamide] | exhibited inhibition effect against telomerase | 23 ± 13% | – | 65 ± 3% | 42 ± 3% | – | – | – |
| C=CCSc1nc2ccc3c(c2[nH]1)C(=O)c1ccccc1C3=O [f1-19, 2-(allylthio)-1H-anthra[1,2-d]imidazole-6,11-dione] | exhibited inhibition effect against telomerase | 42 ± 18% | – | 89 ± 5% | 50 ± 6% | without cell toxicity for normal cell SVGP p12 | in this category | – |
| O=C1c2ccccc2C(=O)c2c1ccc1nc(SCC(=O)N3CCCC3)[nH]c21 [f1-21, 2-(2-oxo-2-(pyrrolidin-1-yl)ethylthio)-1H-anthra[1,2-d]imidazole-6,11-dione] | exhibited inhibition effect against telomerase | 30 ± 10% | – | 63 ± 1% | 38 ± 5% | – | – | – |
| O=C(Sc1nc2ccc3c(c2[nH]1)C(=O)c1ccccc1C3=O)c1ccccc1[N+](=O)[O-] [f2-1, S-6,11-dioxo-6,11-dihydro-1H-anthra[1,2-d]imidazol-2-yl 2-nitrobenzothioate] | exhibited inhibition effect against telomerase | – | – | – | 58 ± 3% | – | – | in this category |
| O=C1c2ccccc2C(=O)c2c1ccc1nc(SC(=O)N3CCOCC3)[nH]c21 [f2-2, S-6,11-dioxo-6,11-dihydro-1H-anthra[1,2-d]imidazol-2-yl morpholine-4-carbothioate] | exhibited inhibition effect against telomerase | 92 ± 11% | – | 96 ± 7% | 43 ± 2% | – | – | – |
| CN1CCN(C(=O)Sc2nc3ccc4c(c3[nH]2)C(=O)c2ccccc2C4=O)CC1 [f2-3, S-6,11-dioxo-6,11-dihydro-1H-anthra[1,2-d]imidazol-2-yl 4-methylpiperazine-1-carbothioate] | exhibited inhibition effect against telomerase | 62 ± 11% | – | 62 ± 3% | 38 ± 2% | – | – | – |
| Cc1cc(C(=O)Sc2nc3ccc4c(c3[nH]2)C(=O)c2ccccc2C4=O)c(C)o1 [f2-6, S-6,11-dioxo-6,11-dihydro-1H-anthra[1,2-d]imidazol-2-yl 2,5-dimethylfuran-3-carbothioate] | exhibited inhibition effect against telomerase | – | – | – | 38 ± 7% | – | – | in this category |
